This is an account of results in US10392412B2, “Platinum anticancer agents” (THE REGENTS OF THE UNIVERSITY OF CALIFORNIA, priority 2015, dated 2019).

“Also recorded” adds a separate entry of the source. Read-outs that look alike come from different tables or passages of the source. Marks after values point to notes of the source that are not given here.

In one data set the test system is SNF539 cells. The experiment in a line: Cytotoxicity CellTiter-Glo. It counts as cell-based, human. For orientation: ATP-based viability assays read luminescence as a measure of living cells.
The test system of another data set is SNB75 cells. In words: Cytotoxicity CellTiter-Glo. The data set is classed as cell-based, human.
For another data set, the system named is U87MG cells. The experiment in a line: Cytotoxicity CellTiter-Glo. It counts as cell-based, human.
A further data set has as its system U251 cells. In words: Cytotoxicity CellTiter-Glo. It counts as cell-based, human.
Another data set relates to T98G cells. The experiment in a line: Cytotoxicity CellTiter-Glo. It counts as cell-based, human.
Another data set concerns MG-63 cells. The experiment in a line: Cytotoxicity CellTiter-Glo. It counts as cell-based, human. The note with it: MG-63, Osteosarcoma.
The next data set deals with SAOS-2 cells. In words: Cytotoxicity CellTiter-Glo. The data set is classed as cell-based, human. Particulars: SAOS-2, Osteosarcoma.
A further data set relates to U-2 OS cells. In words: Cytotoxicity CellTiter-Glo. The data set is classed as cell-based, human.
The next data set has as its system A204 cells. The experiment in a line: Cytotoxicity CellTiter-Glo. The data set is classed as cell-based, human. The note with it: A204, Rhabdomyosarcoma.
Another data set deals with A673 cells. In words: Cytotoxicity CellTiter-Glo. The data set is classed as cell-based, human.
For a further data set, the system named is RMS13 cells. In words: Cytotoxicity CellTiter-Glo. It counts as cell-based, human. Particulars: RMS13, Rhabdomyosarcoma.
A further data set has as its system Kelly cells. In words: Cytotoxicity CellTiter-Glo. The data set is classed as cell-based, human.
The subject of a further data set is SHEP cells. In words: Cytotoxicity CellTiter-Glo. The data set is classed as cell-based, human.
The test system of another data set is SH-SY5Y cells. In words: Cytotoxicity CellTiter-Glo. It counts as cell-based, human.
Another data set concerns AsPC1 cells. The experiment in a line: Cytotoxicity CellTiter-Glo. It counts as cell-based, human. Particulars: read-out: IC50 (50% growth inhibition); AsPC1, Pancreas; 72 hours. On the procedure: (§1) Human cancer cell lines were purchased from UCSF Cell Culture Facility (CCF) or obtained through Material Transfer.
(§2) The range of platinum concentrations used in the studies are 5 μM-100 μM. After 72 hours of treatment, the medium were removed and replaced with 50 μL of the media plus 50 μL of the CellTiterGlo reagent. The number of viable cells in culture will be determined based on quantitation of the ATP present, which is an indicator of the number of active cells. Concentration response graphs were generated for each compound using GraphPad Prism software. The graphs were analyzed using a curve fit for sigmoid dose-response, and IC50 values were derived. The results were expressed as mean IC50 values with the standard error of the mean.

Another data set concerns DU145 cells. The experiment in a line: Cytotoxicity CellTiter-Glo. It counts as cell-based, human. The note with it: read-out: IC50 (50% growth inhibition); DU145, Prostate; 72 hours. Here is the method:
as §1, §2

Another data set concerns H226 cells. The experiment in a line: Cytotoxicity CellTiter-Glo. The data set is classed as cell-based, human. Particulars: read-out: IC50 (50% growth inhibition); H226, Non-small cell squamous; 72 hours. Here is the method:
as §1, §2

Another data set deals with HCT116 cells. The experiment in a line: Cytotoxicity CellTiter-Glo. It counts as cell-based, human. The note with it: read-out: IC50 (50% growth inhibition); HCT116, Colon; 72 hours. Here is the method: as §1, §2
The next data set deals with HT29 cells. In words: Cytotoxicity CellTiter-Glo. Particulars: read-out: IC50 (50% growth inhibition); HT29, Colon; 72 hours. It counts as cell-based, human. Here is the method: as §1, §2
In another data set the test system is PC3 cells. In words: Cytotoxicity CellTiter-Glo. It counts as cell-based, human. Particulars: read-out: IC50 (50% growth inhibition); PC3, Prostate; 72 hours. On the procedure: as §1, §2
The test system of another data set is A2780 cells. In words: Cytotoxicity CellTiter-Glo. The data set is classed as cell-based, human. The note with it: read-out: IC50 (50% growth inhibition); A2780, Ovary; 72 hours.
The test system of the next data set is A2780-CP cells. The experiment in a line: Cytotoxicity CellTiter-Glo. It counts as cell-based, human. The note with it: read-out: IC50 (50% growth inhibition), Ovary, 72 hours.
For another data set, the system named is PE01 cells. In words: Cytotoxicity CellTiter-Glo. The data set is classed as cell-based, human. Particulars: read-out: IC50 (50% growth inhibition); PE01, Ovary; 72 hours.
The test system of the next data set is PE04 cells. In words: Cytotoxicity CellTiter-Glo. It counts as cell-based, human. Particulars: read-out: IC50 (50% growth inhibition); PE04, Ovary; 72 hours.
The next data set has as its system OVCAR2 cells. The experiment in a line: Cytotoxicity CellTiter-Glo. It counts as cell-based, human. The note with it: read-out: IC50 (50% growth inhibition); OVCAR2, Ovary; 72 hours.
A short description of data set [1]: Maximum tolerated dose study: blood chemistry test (Table 7). The note with it: mouse, in vivo, iv, 5 mg/kg. Here is the method: The mice used in MTD were given standard chow devoid of added folic acid (low folate diet) (See, Leamon C P et al., J. Pharmacol. Exp. Ther. 327: 918-925). […] Therefore we also designed a MTD study in mice treated with low folate diet. Food consumption on the day before injection (Day −1) was recorded and then it was monitored every other day. […] Blood for clinical chemistry was collected if possible. Liver, kidney and bone marrow were collected. One side of each tissue (except bone marrow) will be fixed in 4-10% formalin for future histology analysis, and the rest of tissue will be cut into pieces, snap frozen, and stored at −80° C. until analysis. Blood samples for clinical chemistry were centrifuged at 8000 rpm for 10 min at 4° C. within 1 hour of collection. Plasma was collected into 1.5 mL eppendorf tubes and stored at −80° C. until analysis. The measured parameters were alanine transaminase (ALT), aspartate transaminase (AST), alkaline phosphatase (ALP), total bilirubin, glucose, blood urea nitrogen (BUN), creatinine, and electrolytes. All experiments were housed in a virus-free, temperature controlled facility on a 12-h light-dark cycle.

In data set [2] the test system is SK-N-DZ neuroblastoma xenografts. In words: SK-N-DZ neuroblastoma xenograft in nu/nu mice. The data set is classed as in vivo, mouse. Here is the method: (§3) The xenograft studies were performed by subcutaneous injection of SK-N-DZ (neuroblastoma, 30×10^6 cells/animal) and RMS13 (rhabdomyosarcoma, 20×10^6 cells/animal) in right flank of the male Charles River Laboratories nu/nu mice (7-8 weeks old, weight ˜20 g). Mice were treated by intravenous tail vein injection once a week for 4 weeks. The tumor sizes and body weights were monitored twice a week. Tumor volumes were calculated according to the following formula: volume=height×[…]×length×0.5236.

Data set [3] concerns RMS13 rhabdomyosarcoma xenografts. In words: RMS13 rhabdomyosarcoma xenograft in nu/nu mice. It counts as in vivo, mouse. Here is the method: as §3
The test system of the next data set is genomic DNA. The experiment in a line: Platinum-DNA adducts by ICP-MS in HEK293 cells. Particulars: 10 μM, 2 hours. It counts as cell-based, human. Here is the method:
Method to quantify platinum-DNA adducts by ICP-MS has been previously described (5,6). In brief, HEK293 cells were seeded in 6-well poly-D-lysine plate (cell density=0.5×10^6 cells/well). […] After 2 hours, the cells were washed twice with cold HBBS. The platinum content associated with genomic DNA was determined as described elsewhere. Genomic DNA was isolated from the cell pellets using Genomic DNA purification kit (Promega) and the DNA-bound platinum was determined by ICP-MS, which was normalized to total DNA content (determined by absorption spectrometry at 260 nm).

Setting [4] is: read-out: IC50 (50% growth inhibition), Brain, 72 hours.
[5] abbreviates: read-out: IC50 (50% growth inhibition), 72 hours.
Setting [6] is: read-out: IC50 (50% growth inhibition), Neuroblastoma, 72 hours.

What is called IC50 is the concentration that gives 50% inhibition. The GI50 is the concentration that inhibits growth by half. High values mean less potent growth inhibition, low ones more potent growth inhibition. Take `N.N.[Cl][Pt][Cl]` [Cisplatin, cisplatin, reference compound]: the IC50 came out at 6.5 ± 7.2 µM in the data set with SNF539 cells (read-out: IC50 (50% growth inhibition), SNF539, Brain, 72 hours); 15.4 ± 12.6 µM in the data set on SNB75 cells (read-out: IC50 (50% growth inhibition), SNB75, Brain, 72 hours); 16.2 ± 12.6 µM with U87MG cells (setting [4]); 11.2 ± 10.8 µM with U251 cells (read-out: IC50 (50% growth inhibition), U251, Brain, 72 hours); 27.5 µM with T98G cells (setting [4]); 5.1 ± 2.3 µM in the data set on MG-63 cells (setting [5]). Also, the IC50 with SAOS-2 cells (setting [5]) turned out to be 20.5 ± 9.9 µM; in the data set with U-2 OS cells (read-out: IC50 (50% growth inhibition), Osteosarcoma, 72 hours), 59.3 ± 9 µM; with A204 cells (setting [5]) it was 4.6 ± 4.4 µM; in the data set on A673 cells (read-out: IC50 (50% growth inhibition), A673, Ewing's Sarcoma, 72 hours), 0.4 ± 0.3 µM; in the data set with RMS13 cells (setting [5]), 2.5 ± 0.5 µM; in the data set on Kelly cells (setting [6]) it was 7 ± 5 µM. For the same molecule, the IC50 amounted to 4.4 ± 2.4 µM in the data set with SHEP cells (setting [6]); 1 ± 0.6 µM in the data set with SH-SY5Y cells (setting [6]); 2.9 ± 0.03 µM in the data set on AsPC1 cells; 0.5 ± 0.01 µM with DU145 cells; 13.8 ± 2.8 µM with H226 cells; 2.1 ± 0.3 µM in the data set on HCT116 cells. Further, the IC50 was 2.3 ± 0.4 µM in the data set with HT29 cells; 2.5 ± 0.3 µM in the data set with PC3 cells; 1.2 ± 0.2 µM in the data set with A2780 cells; 8.6 ± 2.1 µM in the data set with A2780-CP cells; 0.6 ± 0.4 µM with PE01 cells; 4.9 ± 2 µM in the data set on PE04 cells. In the data set with OVCAR2 cells, the IC50 amounted to 3.3 ± 1.6 µM. Further, the GI50 was 5.1 ± 2.3 µM with MG-63 cells; 20.5 ± 9.9 µM in the data set with SAOS-2 cells; 59.3 ± 9 µM in the data set with U-2 OS cells (Osteosarcoma); 4.6 ± 4.4 µM with A204 cells; 0.4 ± 0.3 µM in the data set on A673 cells (A673, Ewing's sarcoma); 2.5 ± 0.5 µM with RMS13 cells. The GI50 in the data set on Kelly cells (Neuroblastoma) was 7 ± 5 µM; in the data set with SHEP cells (Neuroblastoma) it was 4.4 ± 2.4 µM; with SH-SY5Y cells (Neuroblastoma) it was 1 ± 0.6 µM. Besides, the Cl in data set [1] is reported as 102.33*. In addition, the “tumor volume / tumor growth” value is “inhibited tumor growth” in data set [2] (SKNDZ neuroblastoma xenograft, 5 mg/kg i.v. once a week for 4 weeks) and “inhibited tumor growth” in data set [3] (RMS13 rhabdomyosarcoma xenograft, 5 mg/kg i.v. once a week for 4 weeks). Also, the survival entry in data set [2] (SKNDZ xenograft model, 5 mpk, 5 mg/kg) was “significant difference in survival; also recorded: increase survival rate”; in data set [3] (RMS13 xenograft model, 5 mpk) it was “increase survival rate”.
As to `CN(Cc1cnc2nc(N)nc(N)c2n1)c1ccc(C(=O)N[C@@H](CCC(=O)O)C(=O)O)cc1` [Methotrexate, methotrexate, reference compound], the “platinum content associated with genomic DNA (platinum-DNA adducts)” value with genomic DNA is “did not have strong intensity (binding)”.
For `CN(Cc1cnc2nc(N)nc(N)c2n1)c1ccc(C(=O)NC(CCC(=O)O)C(=O)O)cc1.[Cl][Pt][Cl]` (stereo not shown) [SM-69B], the IC50 with SNF539 cells (read-out: IC50 ± S.D. (50% growth inhibition), SF539, Brain - High grade, + 1 mM Folic Acid) came to 43.2 ± 12.9 µM; with SNF539 cells (read-out: IC50 ± S.D. (50% growth inhibition), SF539, Brain - High grade, two independent experiments), 0.46 ± 0.04 µM; with SNB75 cells (read-out: IC50 ± S.D. (50% growth inhibition), SNB75, Brain - High grade, + 1 mM Folic Acid), 63.3 ± 3.3 µM; with SNB75 cells (read-out: IC50 ± S.D. (50% growth inhibition), SNB75, Brain - High grade, two independent experiments), 11.1 ± 2.1 µM; in the data set with U87MG cells (read-out: IC50 ± S.D. (50% growth inhibition), Brain - Low grade, + 1 mM Folic Acid), 13.9 ± 11.1 µM; with U87MG cells (read-out: IC50 ± S.D. (50% growth inhibition), Brain - Low grade, two independent experiments), 0.96 ± 0.09 µM. Moreover, the IC50 in the data set on U251 cells (read-out: IC50 ± S.D. (50% growth inhibition), U251, Brain - High grade, + 1 mM Folic Acid) came out at 18 ± 1.4 µM; with U251 cells (read-out: IC50 ± S.D. (50% growth inhibition), U251, Brain - High grade, two independent experiments) it was 0.87 ± 0.13 µM; in the data set on T98G cells (read-out: IC50 ± S.D. (50% growth inhibition), Brain - High grade, + 1 mM Folic Acid), 5.3 ± 1.2 µM; in the data set with T98G cells (read-out: IC50 ± S.D. (50% growth inhibition), Brain - High grade, two independent experiments), 0.31 ± 0.05 µM; in the data set with HeLa R1-11 (SLC19A1), 0.109 µM; in the data set on HeLa R1-11 (SLC46A1) it was 0.702 µM.
